20 compounds from patent US12605352B2, “Compositions and methods for inhibiting blood cancer cell growth” (UNIVERSITY OF NEW BRUNSWICK, priority 2019, dated 2026) can be followed below.

The subject of test [1] is OCI-LY3 human lymphoma cells. The test can be described thus: Cell growth inhibition (cell viability assay) on IMiD-resistant human lymphoma cells OCI-LY3. Format: cell-based. The settings on record: for anti-lymphoma cell growth inhibition (in words) / inhibition at 10 µM: 10 uM; for anti-lymphoma cell growth inhibition (in words): OCI-LY3, listed in decreasing order of bioactivity; for inhibition at 1 µM / inhibition at 10 µM: Homo sapiens, OCI-LY3 cells, 48 hr treatment. The source says: (§1) In certain embodiments of the present invention, the remarkable cancer cell growth inhibitory potential of caffeic acid phenpropyl ester analogues was established by treating human leukemia, myeloma and lymphoma cell lines with the analogues of Table 1 and measuring the viability of blood cancer cells by cell viability assay. The efficacy of the analogues of Table 1 in comparison to a standard chemotherapy drug was confirmed.
With reference to Table 3 and FIG. 2, FIG. 2 is a bar graph depicting cell growth inhibitory effect of caffeic acid phenpropyl ester (GL8) analogues according to certain aspects of the present disclosure at 1 uM concentration on human lymphoma cells (Cell line: OCI-LY3; 48 hr treatment).
With reference to Table 1, Table 4 and FIG. 3, FIG. 3 is a bar graph depicting cell growth inhibitory effect of caffeic acid phenpropyl ester (GL8) analogues according to certain aspects of the present disclosure at 10 uM concentration on human lymphoma cells (Cell line: OCI-LY3; 48 hr treatment).

Test [2] deals with HL-60 human leukemia cells. The test can be described thus: Cell growth inhibition (cell viability assay) on human leukemia cells HL-60. Type of test: cell-based. The settings on record: HL-60 cells, 48 hr treatment.
Source text: as §1
With reference to Table 5 and FIG. 4, FIG. 4 is a bar graph depicting cell growth inhibitory effect of caffeic acid phenpropyl ester (GL8) analogues at 10 uM concentration according to certain aspects of the present disclosure on human leukemia cells (Cell line: HL-60; 48 hr treatment).

Test [3] has as its system KMM-1 human myeloma cells. The test can be described thus: Cell growth inhibition (cell viability assay) on IMiD-resistant human myeloma cells KMM-1. Format: cell-based. The settings on record: for inhibition at 10 µM: Homo sapiens, KMM-1 cells, 48 hr treatment; for anti-myeloma cell growth inhibition (in words): 10 uM, KMM-1, listed in decreasing order of bioactivity.
Source text: as §1
With reference to Table 1, Table 2 and FIG. 1, FIG. 1 is a bar graph depicting cell growth inhibitory effect of caffeic acid phenpropyl ester (GL8) analogues at 10 uM concentration according to certain aspects of the present disclosure on human myeloma cells (Cell line: KMM-1; 48 hr treatment).

The test system of test [4] is myeloma cell lines (KMM1, MM1R, JJN3). The test can be described thus: PrestoBlue cell viability assay, concentration response on myeloma cell lines. Type of test: cell-based, human. The settings on record: in comparison to IMiDs, CAPE, GL8 and J229; 48 hours. On the procedure:
Myeloma cell lines were treated for 3 or 5 days with increasing concentration of lenalidomide (FIG. 5A) and pomalidomide (FIG. 5B). KMM1 cells (FIG. 5D), MM1R cells (FIG. 5E), and JJN3 cells (FIG. 5F) were treated for 48 hours with varying concentration of CAPE, GL8, As26 and J229. The cell growth inhibition was determined by PrestoBlue cell viability assay. Data from three independent experiments is presented as mean±SD. IC50 values (FIG. 5C) representing half-maximal inhibitory concentration of compounds were determined using GraphPad prism analyses software.

The next test concerns KMM1 cells. Kind of test: Annexin V-PI flow cytometry apoptosis assay on KMM1 myeloma cells. Type of test: cell-based, human. Conditions: 10 uM, 72-hour treatment. On the procedure:
Induction of apoptosis in myeloma cells by various inhibitors was determined by staining exposed phosphatidylserine with Annexin V-FITC and DNA with Propidium iodide using Alexa Fluor® 488 annexin V/Dead Cell Apoptosis Kit (Invitrogen, ThermoFisher Scientific, CA) according to the manufacturer's instructions. Single-cell suspensions were analyzed on a Beckmann Coulter Gallios Flow Cytometer with Kaluza analyses software. Twenty-five thousand events were acquired for every condition. Apoptotic cells were scored as Annexin V+, PI− and Annexin V+, PI+.
Referring to FIG. 6, Apoptotic effect of veh/vehicle (DMSO), lenalidomide (len), pomalidomide (pom), CAPE, GL8, As26 and J229 (all compounds at 10 uM concentration) on KMM1 cells upon 72-hour treatment followed by Annexin V-PI flow cytometry analyses is shown. Percentage of early and late apoptotic cells are presented as mean±SD (*P≤0.05; **P≤0.01).

As a reminder, the inhibition is the change of the read-out against control, counted positive when it falls.

With `O=C(/C=C/c1cccc(O)c1O)OCCCc1ccccc1` [As25, (E)-3-phenylpropyl 3-(2,3-dihydroxyphenyl)acrylate], in test [1], the “anti-lymphoma cell growth inhibition (in words)” value is recorded as “superior anti-lymphoma cell growth inhibition”, the inhibition at 1 µM came to 69% and the inhibition at 10 µM was found to be 84%. The inhibition at 10 µM in test [2] is 13.6%. Moreover, the inhibition at 10 µM in test [3] stood at 15.1%.

In the case of `O=C(/C=C/c1cc(O)ccc1O)OCCCc1ccccc1` [As26, (E)-3-phenylpropyl 3-(2,5-dihydroxyphenyl)acrylate], in test [1], the “anti-lymphoma cell growth inhibition (in words)” value is “superior anti-lymphoma cell growth inhibition”, the inhibition at 1 µM was determined as 26.6% and the inhibition at 10 µM was determined as 90.3%. In addition, the “myeloma cell growth inhibitory effect (in words)” value in test [4] is on record as “superior myeloma cell growth inhibitory effect”. Further, the inhibition at 10 µM in test [2] was 54.4%. Moreover, in the test with KMM1 cells, the “apoptotic effect (in words)” value is reported as “Remarkable apoptotic effect”. Further, in test [3], the “anti-myeloma cell growth inhibition (in words)” value is “superior anti-myeloma cell growth inhibition” and the inhibition at 10 µM was found to be 89.7%.

Regarding `O=C(/C=C/c1ccc(O)c(O)c1)OCCc1ccccc1` [CAPE, Caffeic acid (3,4-dihydroxycinnamic acid) phenethyl ester, reference compound], the inhibition at 1 µM in test [1] is -24.3%. The inhibition at 10 µM in test [1] was 51.8%; in test [2] it was -6.8%; in test [3], 14.7%.

In the case of `O=C(/C=C/c1ccc(O)c(O)c1)OCc1ccccc1` [GL7, (E)-benzyl 3-(3,4-dihydroxyphenyl)acrylate], in test [1], the inhibition at 1 µM stood at 10.5%. Further, the inhibition at 10 µM was 18.9% in test [1], 20.5% in test [2] and 15.9% in test [3].

For the compound `O=C(/C=C/c1ccc(O)c(O)c1)OCCCc1ccccc1` [GL8, caffeic acid phenpropyl ester, reference compound], the inhibition at 1 µM in test [1] was -4.6%. Also, the inhibition at 10 µM in test [1] came to 78.7%; in test [2], 36%; in test [3], 28.2%.

In the case of `O=C(/C=C/c1ccc(O)c(O)c1)Oc1ccccc1` [GL9, (E)-phenyl 3-(3,4-dihydroxyphenyl)acrylate], the inhibition at 1 µM in test [1] is 26.3%. The inhibition at 10 µM in test [1] was found to be 44.7%; in test [2], 6.8%; in test [3], 26%.

In the case of `COc1cc(/C=C/C(=O)OCCc2ccccc2)cc(OC)c1O` [HM5, (E)-phenethyl 3-(4-hydroxy-3,5-dimethoxyphenyl)acrylate], the inhibition at 1 µM in test [1] is 3.1%. The inhibition at 10 µM in test [1] was -15.4%; in test [2], -13.3%; in test [3], -8.6%.

For `COc1cc(/C=C/C(=O)OCCCc2ccccc2)cc(OC)c1O` [HM7, (E)-3-phenylpropyl 3-(4-hydroxy-3,5-dimethoxyphenyl)acrylate], in test [1], the “anti-lymphoma cell growth inhibition (in words)” value is “superior anti-lymphoma cell growth inhibition”, the inhibition at 1 µM was -4.9% and the inhibition at 10 µM worked out at 90%. Also, in test [2], the inhibition at 10 µM worked out at 24.1%. For the same compound, in test [3], the “anti-myeloma cell growth inhibition (in words)” value was “superior anti-myeloma cell growth inhibition” and the inhibition at 10 µM turned out to be 26.6%.

`O=C(/C=C/c1ccc(O)c(O)c1)OC/C=C/c1ccccc1` [LL14, (2E)-cinnamyl 3-(3,4-dihydroxyphenyl)acrylate]: the inhibition at 1 µM in test [1] was -1%. The inhibition at 10 µM in test [1] amounted to 61.5%; in test [2], 21.6%; in test [3], 16.1%.

Take `O=C(/C=C/c1ccc(O)c(O)c1)OCCCCc1ccccc1` [LL23, (E)-4-phenylbutyl 3-(3,4-dihydroxyphenyl)acrylate]: in test [1], the inhibition at 1 µM is -9.3% and the inhibition at 10 µM was determined as 71.7%. Moreover, in test [2], the inhibition at 10 µM was 33%. Further, in test [3], the “anti-myeloma cell growth inhibition (in words)” value is “superior anti-myeloma cell growth inhibition” and the inhibition at 10 µM was found to be 27.2%.

On to `O=C(/C=C/c1ccc(O)c(O)c1)NCCCc1ccccc1` [LL28, (E)-3-(3,4-dihydroxypheny1)-N-(3-phenylpropyl)acrylamide], for which the inhibition at 1 µM in test [1] was -9.5%. Moreover, the inhibition at 10 µM worked out at 36% in test [1], 8.7% in test [2] and 15.8% in test [3].

`Nc1cccc2c1CN(C1CCC(=O)NC1=O)C2=O` (stereo not shown) [Lenalidomide, lenalidomide, reference compound]: the inhibition at 10 µM is 7.5% in test [1], 1.6% in test [2] and 7.5% in test [3].

Consider `Cc1ccc(CCOC(=O)/C=C/c2ccc(O)c(O)c2)cc1` [MT25, (E)-(4-methylphenethyl) 3-(3,4-dihydroxyphenyl)acrylate], for which, in test [1], the inhibition at 1 µM was found to be 10%. Further, the inhibition at 10 µM in test [1] is 59.8%; in test [2] it was 28.7%; in test [3], 21.6%.

As for `O=C(/C=C/c1ccc(O)c(O)c1)OCCc1ccc(F)cc1` [MT26, (E)-(4-fluorophenethyl) 3-(3,4-dihydroxyphenyl)acrylate], in test [1], the “anti-lymphoma cell growth inhibition (in words)” value was “superior anti-lymphoma cell growth inhibition”, the inhibition at 1 µM is 0.7% and the inhibition at 10 µM turned out to be 79.3%. In addition, in test [2], the inhibition at 10 µM stood at 32.1%. In addition, in test [3], the inhibition at 10 µM was 25.9%.

Take `COc1cc(/C=C/C(=O)OCCc2ccccc2)ccc1O` [MT49, (E)-phenethyl 3-(4-hydroxy-3-methoxyphenyl)acrylate]: the inhibition at 1 µM in test [1] was -1%. The figures for the inhibition at 10 µM in test [1], in test [2] and in test [3] were 1.2%, 14.4% and 6.5%, respectively.

For the compound `COc1cc(/C=C/C(=O)OCCCc2ccccc2)ccc1O` [MT50, (E)-3-phenylpropyl 3-(4-hydroxy-3-methoxyphenyl)acrylate], the inhibition at 1 µM in test [1] is -0.7%. In addition, the inhibition at 10 µM stood at 1.5% in test [1], 13.4% in test [2] and 13.6% in test [3].

For the compound `O=C(/C=C/c1ccc(O)cc1O)OCCCc1ccccc1` [MT72, (E)-3-phenylpropyl 3-(2,4-dihydroxyphenyl)acrylate], the inhibition at 1 µM in test [1] was determined as 3.3%. Further, the inhibition at 10 µM is -4.5% in test [1], -8.2% in test [2] and -0.2% in test [3].

With `O=C(/C=C/c1ccc(O)c(O)c1)OCC#Cc1ccccc1` [Molecule J91, (E)-3-phenylprop-2-ynyl 3-(3,4-dihydroxyphenyl)acrylate], in test [1], the inhibition at 1 µM came out at 0.3% and the inhibition at 10 µM worked out at 39.8%. The inhibition at 10 µM in test [2] stood at 32.4%. Further, in test [3], the “anti-myeloma cell growth inhibition (in words)” value is “superior anti-myeloma cell growth inhibition” and the inhibition at 10 µM was 31.7%.

Regarding `O=C(/C=C/c1ccc(O)c(O)c1)CCCc1ccccc1` [Molecule J205, (E)-1-(3,4-dihydroxyphenyl)-6-phenylhex-1-en-3-one], the inhibition at 1 µM in test [1] was 18.7%. In addition, the inhibition at 10 µM was determined as 76.6% in test [1], 60.7% in test [2] and 22.2% in test [3].

`Oc1ccc(/C=C/COCCCc2ccccc2)cc1O` [Molecule J229, 4-((E)-3-(3-phenylpropoxy)prop-1-enyl)benzene-1,2-diol]: in test [1], the “anti-lymphoma cell growth inhibition (in words)” value was “superior anti-lymphoma cell growth inhibition”, the inhibition at 1 µM stood at 2.3% and the inhibition at 10 µM is 78.2%. Also, in test [2], the inhibition at 10 µM amounted to 54.3%. Moreover, in test [3], the “anti-myeloma cell growth inhibition (in words)” value is “superior anti-myeloma cell growth inhibition” and the inhibition at 10 µM stood at 49.4%.
